Reference: patent EP3362444B1, “COMPOUNDS” (Exonate Limited, priority 2015, dated 2017)
Entries after “also recorded” stand apart in the source; their conditions may differ.

Columns and labels:
SRPK1 [1] = molecular target: T1, SRPK1 (Homo sapiens, UniProt Q96SB4); experiment: In vitro kinase assay (Kinase-Glo), SRPK1 inhibition; format: biochemical; conditions: SRPK1 inhibition assay; 1 µM ATP, SRSF1 RS peptide, 30°C 10 minutes
T1 construct: 0.1 µg of purified SRPK1 kinase
Protocol: Candidate compounds were tested for SRPK1 inhibition using a Kinase-Glo assay (Promega, Southampton, UK32). […] Candidate compounds were serially diluted from 10 µM to 0.5 nM and added to the reaction mixture, wells with omitted SRPK1 kinase and omitted compounds were also added as controls. All wells contained 1% DMSO (Fisher Scientific, Loughborough, UK). One micromolar ATP was added, wells minus ATP were used as background controls. The plate was then incubated at 30°C for 10 minutes. An equal volume of Kinase-Glo (25 µL; Promega) was added to each well and the plate read for luminescence using a Fluostar Optima (BMG Labtech) .

SRPK1 [2] = molecular target: T1, SRPK1; experiment: Differential scanning fluorimetry (DSF); format: binding; conditions: higher ΔTm indicates higher affinity
Protocol: Differential Scanning Fluorimetry was performed as described in Federov et al (2011). […]

[3] = test system: primary RPE cells and ARPE-19 cells; experiment: qRT-PCR and conventional PCR of VEGF-A alternative splicing; format: cell-based, human; conditions: Figures 8 and 9
Text: Primary human retinal epithelial cells were lysed in Trizol reagent and mRNA was extracted using the method of Chomczynski and Sacchi, or using an RNeasy RNA extraction kit (Qiagen, UK). mRNA was reverse transcribed using Thermoscript reverse transcriptase (Fisher Scientific, UK). The cDNA was amplified using primers designed to amplify the region spanning the proximal and distal splice sites in human VEGF-A165a and VEGF-A165b, to amplify both isoforms and differentiate between them due to the fact that the exon 8b-containing isoform is 66-bp shorter than the exon 8a-containing isoform. The primers used were; 5'-[…]-3' (SEQ ID NO:2) and 5'-[…]-3' (SEQ ID NO:3) with the following conditions; 96°C for 2 min followed by 45 cycles at 96°C-30s, 60°C-30s and 72 °C -30 s. The PCR mix consisted of DNA: 200 ng, MgCl2 0.25 mM, Primer each 1 nM, Taq polymerase 1 unit and dH2O up to 25 µl. Control plasmid concentration: VEGF165a 500 ng and VEGF165b 1 µg. PCR products were run on 3% agarose gels containing 0.5 µg/ml ethidium bromide.
RNA was isolated and reverse transcribed as described above. Quantitative PCR (qPCR) was performed with a LightCycler 480 (Roche) q-PCR machine. The qPCR mix included PCR-grade dH2O 3 µl, PCR Primer (1 µM) 2 µl. […]
VEGF-A alternative splicing was further measured in retinal pigmented epithelial cells by qRT-PCR and conventional PCR.

laser-induced CNV = experiment: Laser-induced choroidal neovascularisation (CNV) model, topical eye drops; format: in vivo, C57/B6 mice; conditions: twice daily eye drops, compared with reference compound; Figures 4-7
Protocol: 6-8 week-old female C57/B6 mice were anesthetized with an intraperitoneal injection of a mixture of 50 mg/kg ketamine and 0.5 mg/kg medetomidine. The pupils were immediately dilated by topical (eyedrop) application with a dilator such as 5% phenylephrine hydrochloride and 1% tropicamide. Four photocoagulation lesions were delivered with a green Merilas 532α laser (450 mW, 130 ms) between the "large" retinal vessels in clear space with no vessels in a peripapillary distribution at a distance of 1-2 disc-diameters in each eye. Only clean laser lesions with a subretinal bubble at the time of treatment were included in the study. Immediately following laser photocoagulation the animals were given topical eye drops of candidate compounds twice daily (10 µl, eyes held for 30 seconds to prevent animal wiping drop away).
After one week, mice were anesthetized with an intraperitoneal injection of a mixture of 50 mg/kg ketamine and 0.5 mg/kg medetomidine. The pupils were immediately dilated by topical (eyedrop) application with a dilator such as 5% phenylephrine hydrochloride and 1% tropicamide. Mice were administered an intraperitoneal injection of sodium fluorescein (10%). Phase contrast and green fluorescent fundus images were taken with an angiography microscope and camera with each lesion in focus. The mice were killed by a schedule 1 method and eyes were either unfixed for retinal dissection and protein extraction, or fixed and enucleated and choroids stained and examined.

[4] = test system: retinal pigmented epithelial cells; experiment: Isoform specific VEGF ELISA in retinal pigmented epithelial cells; format: cell-based; conditions: relative to DMSO control; Figure 3
Protocol: 96-well clear microplate (high sensitivity thermo immulon or costar 9018) were coated with 100 µL of 10 µg/ml VEGFxxxb or 0.25 µg/ml anti-hVEGF165a per well. The plate was sealed with parafilm and incubated overnight on the shaker at room temp. Each well was aspirated and washed with Wash Buffer (200 µl PBS-Tween 0.05%), two times for a total of three washes. After the last wash, remaining Wash Buffer was removed by inverting the plate and blotting it against clean paper towels. Plates were blocked by adding 100 µl of Reagent Diluent (1%BSA/PBS) to each well and incubated at room temp on a shaker for 2 hours. The aspiration/wash step was repeated. 100 µL of standards or samples in 1% BSA/PBS were added to each well, covered with parafilm and incubated 2 hours at room temperature. The aspiration/wash was repeated and 100 µL of 100 ng/ml Detection Antibody (BAF293), diluted in Reagent Diluent, was added to each well which were covered with parafilm and incubated 2 hours at room temp. The aspiration/wash was repeated and 100 µL of the working dilution of Streptavidin-HRP (1:200 dilution) was added to each well. […] The optical density of each well was measured immediately, using a microplate reader set to 450 nm.
To determine whether these compounds could switch splicing of VEGF isoforms, VEGF was measured in retinal pigmented epithelial cells by isoform specific ELISA.

T1 sequence (Q96SB4 whole entry): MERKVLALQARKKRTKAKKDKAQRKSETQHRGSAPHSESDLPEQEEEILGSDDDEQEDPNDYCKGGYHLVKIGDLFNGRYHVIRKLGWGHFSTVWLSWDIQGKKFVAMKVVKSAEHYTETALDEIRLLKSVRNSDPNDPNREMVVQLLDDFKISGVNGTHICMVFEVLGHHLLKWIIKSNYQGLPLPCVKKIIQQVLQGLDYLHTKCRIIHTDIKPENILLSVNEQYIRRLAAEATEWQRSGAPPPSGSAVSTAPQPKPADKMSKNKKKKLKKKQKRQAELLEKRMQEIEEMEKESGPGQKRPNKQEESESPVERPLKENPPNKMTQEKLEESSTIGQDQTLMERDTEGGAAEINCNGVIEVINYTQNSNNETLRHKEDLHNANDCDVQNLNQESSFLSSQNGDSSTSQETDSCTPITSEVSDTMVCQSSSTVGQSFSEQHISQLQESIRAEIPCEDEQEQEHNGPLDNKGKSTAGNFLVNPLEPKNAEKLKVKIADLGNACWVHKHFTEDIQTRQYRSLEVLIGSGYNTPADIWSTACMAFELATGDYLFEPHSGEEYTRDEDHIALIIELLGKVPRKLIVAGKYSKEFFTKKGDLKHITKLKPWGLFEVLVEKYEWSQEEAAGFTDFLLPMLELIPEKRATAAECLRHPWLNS

Row | IC50 (SRPK1 [1]) | DSF (ΔTm/°C) (SRPK1 [2]) | SMILES | levels of VEGF165b relative to VEGF165 RNA [3] | anti-angiogenic efficacy as an eye drop (CNV lesion size) (laser-induced CNV) | VEGF165b and VEGF165 protein [4]
1 | 3.5 nM | 17.36 °C | O=C(Nc1cc(C(F)(F)F)ccc1N1CCN(Cc2cc[nH]n2)CC1)c1ccc(C2CCOCC2)o1 [Compound 14, N-(2-(4-((1H-pyrazol-3-yl)methyl)piperazin-1-yl)-5-(trifluoromethyl)-phenyl)-5-(tetrahydro-2H-pyran-4-yl)furan-2-carboxamide] | decrease VEGF-A165a/VEGF165b mRNA isoform expression; also recorded: decrease in VEGF165 |  | 
2 |  |  | O=C(Nc1cc(C(F)(F)F)ccc1N1CCN(Cc2cocn2)CC1)c1ccc(-c2ccncc2)o1 [Compound 17, N-(2-(4-(oxazol-4-ylmethyl)piperazin-1-yl)-5-(trifluoromethyl)phenyl)-5-(pyridin-4-yl)furan-2-carboxamide] |  | same anti-angiogenic activity on lesion size and the same efficacy as reference compounds | increase in VEGF165b, but not VEGF165 protein
